Calls of active or inactive are those of the source.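 Rule for the calls: active = IC50 against the VIM-2 bacterial beta-lactamase enzyme at or below a set limit; inactive = IC50 above that set limit.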

In the test the target is VIM-2 metallo-beta-lactamase (Pseudomonas aeruginosa) (UniProt Q932Y6). Briefly: concentration-dependent VIM-2 enzyme inhibition – biochemical, epi-absorbance readout, selective inhibitors, dose response (AID 1919). The following applies: purified VIM-2, nitrocefin hydrolysis, epi-absorbance fluorescence.
Regarding `CCOC(=O)N=S(N)(=O)c1ccccc1` (stereo unspecified), the IC50 – broadly, the point on the concentration scale where inhibition reaches its midpoint – was “inactive”. Consider `NC(=O)SCC(=O)Nc1ccccc1C(=O)O`, for which the IC50 entry is “inactive”. The result for `O=C(CSc1nnc(NC(=O)C2CC2)s1)NCc1ccccc1Cl` reads “inactive”; that for `Cc1ccc(-c2c(C(=O)O)c(C(=O)O)c3n2CSC3)cc1`, 9.91 µM. Take `O=C(O)c1ccccc1C(=O)c1cccc2ccccc12`: the IC50 result was “inactive”. Take `Cc1ccc(-c2n[nH]c(=S)n2-c2ccccc2)cc1`: the IC50 was > 59.6 µM (inactive).

The values above are taken from PubChem BioAssay AID1919 (The Scripps Research Institute Molecular Screening Center, 2009).
